Laboratory results published in ChEMBL document CHEMBL1201862, “PubChem BioAssay data set” (2004).
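Where inhibition never reached the appropriate level, the endpoint shown equals the highest concentration tested. Otherwise, values were interpolated linearly from a five-concentration, 48-hour dose response in 96-well plates. Abbreviation: GI50, concentration required for 50% inhibition of growth.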 Calls of active or inactive are those of the source. Cut-off read from the data, not from the text of the source: active = GI50 up to about 1.1 µM and inactive = higher.

How the values were obtained:
Experiment in all cases: inhibition of tumour cell growth, NCI panel, 48 h
BT-549 = tested on: BT-549
DU-145 = tested on: DU-145
HCC 2998 = tested on: HCC 2998
IGROV-1 = tested on: IGROV-1
K562 = tested on: K562
LOX IMVI = tested on: LOX IMVI
Malme-3M = tested on: Malme-3M
OVCAR-3 = tested on: OVCAR-3
OVCAR-4 = tested on: OVCAR-4
OVCAR-8 = tested on: OVCAR-8
PC-3 = tested on: PC-3
RPMI-8226 = tested on: RPMI-8226
RXF 393 = tested on: RXF 393
SF-295 = tested on: SF-295
SK-MEL-28 = tested on: SK-MEL-28
SN12C = tested on: SN12C
SNB-19 = tested on: SNB-19
U-251 = tested on: U-251
UACC-62 = tested on: UACC-62
UO-31 = tested on: UO-31

Compound	GI50 (BT-549)	GI50 (DU-145)	GI50 (HCC 2998)	GI50 (IGROV-1)	GI50 (K562)	GI50 (LOX IMVI)	GI50 (Malme-3M)	GI50 (OVCAR-3)	GI50 (OVCAR-4)	GI50 (OVCAR-8)	GI50 (PC-3)	GI50 (RPMI-8226)	GI50 (RXF 393)	GI50 (SF-295)	GI50 (SK-MEL-28)	GI50 (SN12C)	GI50 (SNB-19)	GI50 (U-251)	GI50 (UACC-62)	GI50 (UO-31)
CC1=CC2(C)C=C[C@@H]1C(=O)[C@@]1(C)CC[C@@](O)(C(C)C)[C@H]1CC2	33.8 µM (inactive)	28.9 µM (inactive)	17.5 µM (inactive)	26.2 µM (inactive)	20 µM (inactive)	19.1 µM (inactive)	19.4 µM (inactive)	16.1 µM (inactive)	17.8 µM (inactive)	17.1 µM (inactive)	24.2 µM (inactive)	26.5 µM (inactive)	19.4 µM (inactive)	16.7 µM (inactive)	20.9 µM (inactive)	20.9 µM (inactive)	23.6 µM (inactive)	18.1 µM (inactive)	20.1 µM (inactive)	17.6 µM (inactive)
CCc1nc2c(c(N(C)C)c1C(=O)OC)CCc1ccccc1-2	35 µM (inactive)	1.5 µM (inactive)	24.6 µM (inactive)	40.4 µM (inactive)	20.2 µM (inactive)	27.2 µM (inactive)	30.5 µM (inactive)	13.4 µM (inactive)	44.8 µM (inactive)	34.1 µM (inactive)	18 µM (inactive)	18.7 µM (inactive)	31.2 µM (inactive)	17.6 µM (inactive)	38.5 µM (inactive)	28.8 µM (inactive)	38.4 µM (inactive)	30.9 µM (inactive)	16.9 µM (inactive)	37.4 µM (inactive)
O=C(CCOS(=O)(=O)CF)N1CCN(C(=O)CCOS(=O)(=O)CF)CC1	> 100 µM (inactive)	35.9 µM (inactive)	> 100 µM (inactive)	> 69.5 µM (inactive)	56.5 µM (inactive)	16.9 µM (inactive)	> 57.3 µM (inactive)	> 100 µM (inactive)	> 100 µM (inactive)	60.1 µM (inactive)	> 100 µM (inactive)	> 46.5 µM (inactive)	59.3 µM (inactive)	32.6 µM (inactive)	> 100 µM (inactive)	35.1 µM (inactive)	58.3 µM (inactive)	29.8 µM (inactive)	16.4 µM (inactive)	66.7 µM (inactive)
CN(C)Cc1ccc(C(C)(C)C)cc1-c1cc(C(C)(C)C)ccc1CN(C)C	> 100 µM (inactive)	> 100 µM (inactive)	16 µM (inactive)	> 100 µM (inactive)	27.8 µM (inactive)	83.6 µM (inactive)	31.3 µM (inactive)	21.8 µM (inactive)	53.7 µM (inactive)	> 100 µM (inactive)	27.7 µM (inactive)	26.9 µM (inactive)	97.1 µM (inactive)	33.5 µM (inactive)	33.3 µM (inactive)	22.2 µM (inactive)	> 100 µM (inactive)	42.7 µM (inactive)	> 100 µM (inactive)	42.7 µM (inactive)
C=CCN1C(=O)CC1N(CC=C)S(=O)(=O)c1ccc(C)cc1 (stereo not given)	> 100 µM (inactive)	> 100 µM (inactive)	> 100 µM (inactive)	> 100 µM (inactive)	98.4 µM (inactive)	> 100 µM (inactive)	> 100 µM (inactive)	> 100 µM (inactive)	> 100 µM (inactive)	> 100 µM (inactive)	> 100 µM (inactive)	> 100 µM (inactive)	> 100 µM (inactive)	> 100 µM (inactive)	> 100 µM (inactive)	61.7 µM (inactive)	> 100 µM (inactive)	> 100 µM (inactive)	> 100 µM (inactive)	> 100 µM (inactive)
Nc1c2c(nc3cc(F)c(F)cc13)CCC2	> 100 µM (inactive)	52.6 µM (inactive)	14.5 µM (inactive)	45.7 µM (inactive)	35.3 µM (inactive)	36.6 µM (inactive)	41.7 µM (inactive)	> 100 µM (inactive)	58.2 µM (inactive)	44.5 µM (inactive)	39.8 µM (inactive)	43.9 µM (inactive)	33.5 µM (inactive)	41.2 µM (inactive)	52.7 µM (inactive)	43.2 µM (inactive)	48.6 µM (inactive)	56.6 µM (inactive)	82.4 µM (inactive)	4.05 µM (inactive)
Cc1ccc(OCC2CO2)c(Br)c1 (stereo not given)	< 0.01 µM (active)	38.4 µM (inactive)	16 µM (inactive)	15.5 µM (inactive)	22.3 µM (inactive)	12.1 µM (inactive)	56.5 µM (inactive)	25.1 µM (inactive)	14.7 µM (inactive)	7.8 µM (inactive)	47.3 µM (inactive)	25.1 µM (inactive)	10.1 µM (inactive)	21 µM (inactive)	27.5 µM (inactive)	18.6 µM (inactive)	41.3 µM (inactive)	15.2 µM (inactive)	17.7 µM (inactive)	18.5 µM (inactive)
CCC1(C)C=Cc2c(cc(OC)c3c(=O)c4ccccc4n(C)c23)O1 (stereo not given)	5.4 µM (inactive)	> 10 µM (inactive)	> 10 µM (inactive)	> 10 µM (inactive)	8.61 µM (inactive)	> 10 µM (inactive)	> 10 µM (inactive)	9.55 µM (inactive)	9.51 µM (inactive)	> 10 µM (inactive)	> 10 µM (inactive)	3.83 µM (inactive)	2.44 µM (inactive)	3.56 µM (inactive)	9.16 µM (inactive)	> 10 µM (inactive)	> 10 µM (inactive)	> 10 µM (inactive)	9.98 µM (inactive)	1.15 µM (inactive)
